The source of these data is patent EP4563146A1 (IRBM S.P.A., priority 2023, dated 2025).

Assay [1] deals with T1, West Nile Virus (WNV) NS2B-NS3 protease (West Nile virus, UniProt Q9Q6P4).
T1 construct: NS2B1423-1470); purchased R&D 2907-SE-020
The assay is described as follows: WNV protease inhibition assay. Format: biochemical. The note with it: Table 4; letter codes for IC50. The source says:
WNV protease inhibition assay

For assay [2], the system named is ZIKV replicon. The assay is described as follows: ZIKV replication inhibition assay (NanoLuc replicon in Vero cells). The note with it: 72 h.
The mark [3] stands for this setting: Zika virus, Vero, read-out: ZIKA Cell_Nanoluc, Vero cells with stable ZIKV replicon, 72 h, Nano-Glo readout.
Where [4] appears, read: read-out: ZIKA Cell_Nanoluc, Vero cells with stable ZIKV replicon, Nano-Glo readout.
[5] abbreviates: Zika virus, Vero, read-out: ZIKA Cell_Nanoluc.

In general, IC50 refers to the midpoint of a concentration-inhibition curve. Higher therefore signals weaker potency.

Read-outs that look alike come from different tables or passages of the source.

T1 sequence (Q9Q6P4 1423-1470): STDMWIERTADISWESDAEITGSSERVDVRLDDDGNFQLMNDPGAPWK
T1 sequence (Q9Q6P4 1506-1689): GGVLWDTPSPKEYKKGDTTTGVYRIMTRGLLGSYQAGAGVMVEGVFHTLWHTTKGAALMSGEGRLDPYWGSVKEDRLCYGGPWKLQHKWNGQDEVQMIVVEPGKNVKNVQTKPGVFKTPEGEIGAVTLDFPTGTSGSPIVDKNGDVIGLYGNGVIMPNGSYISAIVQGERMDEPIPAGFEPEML

In assay [1], `CC(=O)Nc1ccc(NC(=O)[N-]c2c[n+](Cc3ccc(-c4c(C)ncnc4C)cc3)no2)cc1C(F)(F)F` [Example 264, ((4-Acetamido-3-(trifluoromethyl)phenyl)-carbamoyl)(3-(4-(4,6-dimethylpyrimidin-5-yl)benzyl)-1,2,3-oxadiazol-3-ium-5-yl)amide] showed a 50% inhibitory concentration (IC50) below 100 nM. Further, the EC50 in assay [2] (setting [3]) is below 100 nM.
`O=C([N-]c1c[n+](CC2CCCc3ccccc32)no1)Nc1ccnc(C(F)(F)F)c1` (racemic) [Example 200, Rac-(3-((1,2,3,4-Tetrahydronaphthalen-1-yl)methyl)-1,2,3-oxadiazol-3-ium-5-yl)((2-(trifluoromethyl)pyridin-4-yl)carbamoyl)amide]: in assay [1], the IC50 was 100 to 1000 nM. Further, the EC50 in assay [2] (setting [3]) was in the range of 100 to 1000 nM.
Compound `Cc1ccccc1CC(=O)Nc1cc(NC(=O)[N-]c2c[n+]([C@@H]3CCC[C@@H](C(N)=O)C3)no2)cc(C(F)(F)F)c1` [Example 267, (3-((1R,3R)-3-Carbamoylcyclohexyl)-1,2,3-oxadiazol-3-ium-5-yl)((3-(2-(o-tolyl)acetamido)-5-(trifluoromethyl)phenyl)carbamoyl)amide] displayed a half-inhibitory concentration (IC50) in assay [1] of 100 to 1000 nM. Moreover, the EC50 in assay [2] (setting [4]) was 1000 to 20000 nM.
As for “(3-((1R,4R)-4-((Dimethylamino)methyl)-cyclohexyl)-1,2,3-oxadiazol-3-ium-5-yl)((3-(2-(3- methoxyphenyl)acetamido)-5-(trifluoromethyl)- phenyl)carbamoyl)amide [Example 152]”, the concentration for half-maximal inhibition (IC50) in assay [1] was 100 to 1000 nM. The EC50 in assay [2] (setting [4]) is 1000 to 20000 nM.
`Cc1ccccc1CC(=O)Nc1cc(NC(=O)[N-]c2c[n+]([C@H]3CCC[C@@H](CN(C)C)C3)no2)cc(C(F)(F)F)c1` [Example 213, (3-((1S,3R)-3-((Dimethylamino)methyl)-cyclohexyl)-1,2,3-oxadiazol-3-ium-5-yl)((3-(2-(o-tolyl)acetamido)-5-(trifluoromethyl)phenyl)carbamoyl)amide] showed an IC50 in assay [1] of 100 to 1000 nM. In addition, the EC50 in assay [2] (setting [3]) lay within 1000 to 20000 nM.
For `CN(C)[C@H]1CCC[C@@H]([n+]2cc([N-]C(=O)Nc3cc(NC(=O)Cc4ccccc4)cc(C(F)(F)F)c3)on2)C1` [Example 174, (3-((1R,3S)-3-(Dimethylamino)cyclohexyl)-1,2,3-oxadiazol-3-ium-5-yl)((3-(2-phenyl-acetamido)-5-(trifluoromethyl)phenyl)-carbamoyl)amide], in assay [1], the IC50 is 100 to 1000 nM. The EC50 in assay [2] (setting [3]) fell in the range of 1000 to 20000 nM.
In the same order, the values of `Cc1ccccc1CC(=O)Nc1cc(NC(=O)[N-]c2c[n+]([C@@H]3CCC[C@H](C(=O)N(C)C)C3)no2)cc(C(F)(F)F)c1` (racemic) [Example 253, rac-(3-((1R,3S)-3-(Dimethylcarbamoyl)-cyclohexyl)-1,2,3-oxadiazol-3-ium-5-yl)((3-(2-(o-tolyl)-acetamido)-5-(trifluoromethyl)phenyl)-carbamoyl)amide] are 100 to 1000 nM and 1000 to 20000 nM.
Regarding “((3-(2-(3-(Carboxymethyl)phenyl)acetamido)-5-(trifluoromethyl)phenyl)carbamoyl)(3-((1R,4R)-4-((dimethylamino)methyl)cyclohexyl)-1,2,3-oxadiazol-3-ium-5-yl)amide [Example 155]”, the IC50 in assay [1] lay in the range of 100 to 1000 nM. Further, in assay [2] (setting [4]), the EC50 was 1000 to 20000 nM.
Take `CN(C)C[C@H]1CC[C@H]([n+]2cc([N-]C(=O)Nc3cc(NC(=O)Cc4ccccc4O)cc(C(F)(F)F)c3)on2)CC1` [Example 191, (3-((1R,4R)-4-((Dimethylamino)methyl)-cyclohexyl)-1,2,3-oxadiazol-3-ium-5-yl)((3-(2-(2-hydroxyphenyl)acetamido)-5-(trifluoromethyl)-phenyl)carbamoyl)amide]: the IC50 in assay [1] lay in the range of 1000 to 20000 nM. Moreover, the EC50 in assay [2] (setting [5]) was below 100 nM.
For the compound `Cc1ncnc(C)c1-c1ccc(C[n+]2cc([N-]C(=O)Nc3ccc(O)c(C(F)(F)F)c3)on2)cc1` [Example 261, (3-(4-(4,6-Dimethylpyrimidin-5-yl)benzyl)-1,2,3-oxadiazol-3-ium-5-yl)((4-hydroxy-3-(trifluoromethyl)phenyl)carbamoyl)amide], in assay [1], the 50% inhibitory concentration (IC50) was below 100 nM. Also, in assay [2] (setting [3]), the EC50 is below 100 nM.
In assay [1], `Cc1ccccc1CC(=O)Nc1cc(NC(=O)[N-]c2c[n+]([C@H]3CCC[C@@H](CN(C)C)C3)no2)cc(C(F)(F)F)c1` (stereo in doubt) [Example 246, rac-(3-((1S,3R)-3-((Dimethylamino)methyl)-cyclohexyl)-1,2,3-oxadiazol-3-ium-5-yl)((3-(2-(o-tolyl)acetamido)-5-(trifluoromethyl)phenyl)-carbamoyl)amide] showed an IC50 below 100 nM. The EC50 in assay [2] (setting [3]) lay in the range of 1000 to 20000 nM.
`CNC(=O)[C@H]1CCC[C@@H]([n+]2cc([N-]C(=O)Nc3cc(NC(=O)Cc4ccccc4C)cc(C(F)(F)F)c3)on2)C1` (racemic) [Example 245, rac-(3-((1R,3S)-3-(Methylcarbamoyl)cyclohexyl)-1,2,3-oxadiazol-3-ium-5-yl)((3-(2-(o-tolyl)acetamido)-5-(trifluoromethyl)phenyl)carbamoyl)amide] came in with an IC50 in assay [1] of 100 to 1000 nM. For the same compound, the EC50 in assay [2] (setting [3]) was in the range of 1000 to 20000 nM.
As for `CNC(=O)[C@H]1CC[C@H]([n+]2cc([N-]C(=O)Nc3cc(NC(=O)Cc4ccccc4C)cc(C(F)(F)F)c3)on2)CC1` [Example 251, rac-(3-((1R,4R)-4-(Methylcarbamoyl)-cyclohexyl)-1,2,3-oxadiazol-3-ium-5-yl)((3-(2-(o-tolyl)acetamido)-5-(trifluoromethyl)phenyl)-carbamoyl)amide], the IC50 in assay [1] is 100 to 1000 nM. Also, in assay [2] (setting [5]), the EC50 fell in the range of 1000 to 20000 nM.
On the same counts, the results for `CN(C)C[C@H]1CC[C@H]([n+]2cc([N-]C(=O)Nc3cc(NC(=O)C(F)(F)CN4CCCC4)cc(C(F)(F)F)c3)on2)CC1` [Example 160, ((3-(2,2-Difluoro-3-(pyrrolidin-1-yl)propanamido)-5-(trifluoromethyl)phenyl)-carbamoyl)(3-((1R,4R)-4-((dimethylamino)-methyl)cyclohexyl)-1,2,3-oxadiazol-3-ium-5-yl)amide] are 1000 to 20000 nM and above 20000 nM.
For the compound `CN1CCc2ccccc2C1C[n+]1cc([N-]C(=O)Nc2cc(NC(=O)Cc3ccccc3)cc(C(F)(F)F)c2)on1` (racemic) [Example 192, rac-(3-((2-Methyl-1,2,3,4-tetrahydroisoquinolin-1-yl)methyl)-1,2,3-oxadiazol-3-ium-5-yl)((3-(2-phenylacetamido)-5-(trifluoromethyl)phenyl)carbamoyl)amide], in assay [1], the IC50 lay in the range of 100 to 1000 nM. In assay [2] (setting [3]), the EC50 lay within 100 to 1000 nM.
In turn, `CN(C)C[C@H]1CC[C@H]([n+]2cc([N-]C(=O)Nc3cc(N4CCC(c5ccccc5)C4=O)cc(C(F)(F)F)c3)on2)CC1` (stereo partly drawn) [Example 148, (3-((1R,4R)-4-((Dimethylamino)methyl)-cyclohexyl)-1,2,3-oxadiazol-3-ium-5-yl)((3-(2-oxo-3-phenylpyrrolidin-1-yl)-5-(trifluoromethyl)-phenyl)carbamoyl)amide] displayed a concentration for half-maximal inhibition (IC50) in assay [1] of 100 to 1000 nM. Moreover, the EC50 in assay [2] (setting [5]) fell in the range of 1000 to 20000 nM.
In assay [1], `Cc1ccccc1CC(=O)Nc1cc(NC(=O)[N-]c2c[n+]([C@H]3CCC[C@@H](c4cncnc4)C3)no2)cc(C(F)(F)F)c1` [Example 222, (3-((1S,3R)-3-(Pyrimidin-5-yl)cyclohexyl)-1,2,3-oxadiazol-3-ium-5-yl)((3-(2-(o-tolyl)acetamido)-5-(trifluoromethyl)phenyl)-carbamoyl)amide] gave an IC50 below 100 nM. Further, the EC50 in assay [2] (setting [3]) fell in the range of 100 to 1000 nM.
For `CNC(=O)[C@@H]1CCC[C@@H]([n+]2cc([N-]C(=O)Nc3cc(NC(=O)Cc4ccccc4C)cc(C(F)(F)F)c3)on2)C1` (racemic) [Example 252, rac-(3-((1R,3R)-3-(Methylcarbamoyl)-cyclohexyl)-1,2,3-oxadiazol-3-ium-5-yl)((3-(2-(o-tolyl)-acetamido)-5-(trifluoromethyl)phenyl)-carbamoyl)amide], the IC50 in assay [1] is 100 to 1000 nM. Further, the EC50 in assay [2] (setting [3]) was in the range of 1000 to 20000 nM.
Turning to `CN(C)C[C@H]1CC[C@H]([n+]2cc([N-]C(=O)Nc3cc(NC(=O)CCc4cn(C)c5ccccc45)cc(C(F)(F)F)c3)on2)CC1` [Example 157, (3-((1R,4R)-4-((Dimethylamino)methyl)-cyclohexyl)-1,2,3-oxadiazol-3-ium-5-yl)((3-(3-(1-methyl-1H-indol-3-yl)propanamido)-5-(trifluoromethyl)phenyl)carbamoyl)amide], in assay [1], the IC50 was below 100 nM. Moreover, the EC50 in assay [2] (setting [4]) was in the range of 1000 to 20000 nM.
In assay [1], `O=C([N-]c1c[n+](C[C@H]2CC[C@@H](c3cncnc3)CC2)no1)Nc1ccnc(C(F)(F)F)c1` [Example 182, (3-(((1S,4S)-4-(Pyrimidin-5-yl)cyclohexyl)methyl)-1,2,3-oxadiazol-3-ium-5-yl)((2-(trifluoromethyl)pyridin-4-yl)carbamoyl)amide] displayed an IC50 of 100 to 1000 nM. The EC50 in assay [2] (setting [5]) lay in the range of 1000 to 20000 nM.
In assay [1], `Cc1ncnc(C)c1-c1ccc(C[n+]2cc([N-]C(=O)N[C@H]3CC[C@@]4(C3)CC4(F)F)on2)nc1` (racemic) [Example 180, rac-(((3R,5S)-1,1-Difluorospiro[2.4]heptan-5-yl)carbamoyl)(3-((5-(4,6-dimethylpyrimidin-5-yl)pyridin-2-yl)methyl)-1,2,3-oxadiazol-3-ium-5-yl)amide] returned a concentration for half-maximal inhibition (IC50) of 1000 to 20000 nM. In assay [2] (setting [3]), the EC50 is 1000 to 20000 nM.
As to `O=C([N-]c1c[n+](C[C@H]2CC[C@H](c3cncnc3)CC2)no1)Nc1ccnc(C(F)(F)F)c1` [Example 187, (3-(((1R,4R)-4-(Pyrimidin-5-yl)cyclohexyl)-methyl)-1,2,3-oxadiazol-3-ium-5-yl)((2-(trifluoromethyl)pyridin-4-yl)carbamoyl)amide], in assay [1], the IC50 was in the range of 100 to 1000 nM. For the same compound, the EC50 in assay [2] (setting [5]) lay in the range of 100 to 1000 nM.
Compound `CN1CCc2ccccc2C1C[n+]1cc([N-]C(=O)Nc2ccnc(C(F)(F)F)c2)on1` (racemic) [Example 181, rac-(3-((2-Methyl-1,2,3,4-tetrahydroisoquinolin-1-yl)methyl)-1,2,3-oxadiazol-3-ium-5-yl)((2-(trifluoromethyl)pyridin-4-yl)carbamoyl)amide] showed a concentration for half-maximal inhibition (IC50) in assay [1] below 100 nM. Besides, the EC50 in assay [2] (setting [3]) was in the range of 100 to 1000 nM.
